# In BindingDB's records for doi:10.7270/Q2QJ7FRJ (Nmmlsc, 2009):
# Target: Cell division control protein 42 homolog (Homo sapiens, UniProt P60953)
# Assay: wildtype Cdc42 GTP-binding inhibitors, SAR follow-up, biochemical, pyrazoline analogs, multiplex bead flow cytometry, Ki (AID 2019)
# [1] = inactive by the depositor's call
# Chain of Cell division control protein 42 homolog (P60953 whole entry): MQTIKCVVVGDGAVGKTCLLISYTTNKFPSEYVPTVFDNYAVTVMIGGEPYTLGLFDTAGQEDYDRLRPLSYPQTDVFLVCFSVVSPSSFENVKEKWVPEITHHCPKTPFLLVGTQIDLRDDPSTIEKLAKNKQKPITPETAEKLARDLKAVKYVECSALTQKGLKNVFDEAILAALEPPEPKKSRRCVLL
SMILES,EC50 [1],EC50
COc1ccc(C2=NN(c3ccccc3)C(c3ccccc3C(F)(F)F)C2)cc1 (centres undefined),34.4 µM,
NS(=O)(=O)c1ccc(N2N=C(c3ccc(Cl)cc3)CC2c2ccccc2)cc1 (centres undefined),,3.32 µM
COc1ccc(C2CC(c3ccc(F)cc3)=NN2c2cccc(F)c2)cc1OC (centres undefined),,21 µM
COc1ccc(C2CC(c3ccc(Cl)cc3)=NN2c2ccc(S(N)(=O)=O)cc2)cc1 (centres undefined),,2.3 µM
COc1ccc(C2CC(c3ccc(C)cc3)=NN2c2ccc(S(N)(=O)=O)cc2)cc1 (centres undefined),,2.21 µM
COc1ccc(C2CC(c3cccc(C(F)(F)F)c3)=NN2c2ccc(S(N)(=O)=O)cc2)cc1 (centres undefined),,3.11 µM
COc1ccc(C2CC(c3cccnc3)=NN2c2ccc(S(N)(=O)=O)cc2)cc1 (centres undefined),,9.51 µM
"NS(=O)(=O)c1ccc(N2N=C(c3ccccc3)CC2c2ccc(Cl)cc2)cc1 (centres undefined) [4-[3-(4-chlorophenyl)-5-phenyl-3,4-dihydropyrazol-2-yl]benzenesulfonamide]",,2.76 µM
"COc1ccc(C2CC(c3ccc(C(F)(F)F)cc3)=NN2c2ccc(S(N)(=O)=O)cc2)cc1 (centres undefined) [4-[3-(4-methoxyphenyl)-5-[4-(trifluoromethyl)phenyl]-3,4-dihydropyrazol-2-yl]benzenesulfonamide]",30 µM,
"COc1ccc(C2CC(C)=NN2c2ccc(S(N)(=O)=O)cc2)cc1 (centres undefined) [4-[3-(4-methoxyphenyl)-5-methyl-3,4-dihydropyrazol-2-yl]benzenesulfonamide]",30 µM,
"COc1ccc(C2CC(c3ccccc3Cl)=NN2c2ccc(S(N)(=O)=O)cc2)cc1 (centres undefined) [4-[5-(2-chlorophenyl)-3-(4-methoxyphenyl)-3,4-dihydropyrazol-2-yl]benzenesulfonamide]",,2.59 µM
"COc1ccc(C2CC(c3cccc(F)c3)=NN2c2ccc(S(N)(=O)=O)cc2)cc1 (centres undefined) [4-[5-(3-fluorophenyl)-3-(4-methoxyphenyl)-3,4-dihydropyrazol-2-yl]benzenesulfonamide]",,2.86 µM
"COc1ccc(C2CC(c3cccc(OC)c3)=NN2c2ccc(S(N)(=O)=O)cc2)cc1 (centres undefined) [4-[5-(3-methoxyphenyl)-3-(4-methoxyphenyl)-3,4-dihydropyrazol-2-yl]benzenesulfonamide]",,1.46 µM
"NS(=O)(=O)c1ccc(N2N=C(c3ccc(Br)cc3)CC2c2ccc(F)cc2)cc1 (centres undefined) [4-[5-(4-bromophenyl)-3-(4-fluorophenyl)-3,4-dihydropyrazol-2-yl]benzenesulfonamide]",30 µM,
"COc1ccc(C2CC(c3ccc(F)cc3)=NN2c2ccc(S(N)(=O)=O)cc2)cc1 (centres undefined) [4-[5-(4-fluorophenyl)-3-(4-methoxyphenyl)-3,4-dihydropyrazol-2-yl]benzenesulfonamide]",,4.26 µM
"COc1ccc(C2CC(C3CCCCC3)=NN2c2ccc(S(N)(=O)=O)cc2)cc1 (centres undefined) [4-[5-cyclohexyl-3-(4-methoxyphenyl)-3,4-dihydropyrazol-2-yl]benzenesulfonamide]",30 µM,
"O=S(=O)(c1ccc(N2N=C(c3ccc(Br)cc3)CC2c2ccccc2)cc1)C(F)F (centres undefined) [5-(4-bromophenyl)-2-[4-(difluoromethylsulfonyl)phenyl]-3-phenyl-3,4-dihydropyrazole]",30 µM,
"FC(F)(F)c1ccccc1C1CC(c2ccc(Br)cc2)=NN1c1ccccc1 (centres undefined) [5-(4-bromophenyl)-2-phenyl-3-[2-(trifluoromethyl)phenyl]-3,4-dihydropyrazole]",30 µM,
"O=[N+]([O-])c1cccc(C2C[C-](c3ccc(F)cc3)N=[N+]2c2ccccc2)c1 (centres undefined) [5-(4-fluorophenyl)-3-(3-nitrophenyl)-2-phenyl-3,4-dihydropyrazole]",30 µM,
Cc1ccc(-c2cc(C(F)(F)F)nn2-c2ccc(S(N)(=O)=O)cc2)cc1 [Celecoxib],30 µM,
COc1ccc(C2CC(C(C)(C)C)=NN2c2ccc(S(N)(=O)=O)cc2)cc1 (centres undefined) [KUC103450N],30 µM,

SMILES,EC50 [1],EC50
COc1ccc(C2CC(c3ccccc3C(F)(F)F)=NN2c2ccc(S(N)(=O)=O)cc2)cc1 (centres undefined) [KUC103474N],30 µM,
"Cc1ccccc1N1N=C(c2ccccc2)CC1c1ccc(N(C)C)cc1 (centres undefined) [N,N-dimethyl-4-[2-(2-methylphenyl)-5-phenyl-3,4-dihydropyrazol-3-yl]aniline]",30 µM,
COc1ccc(C2CC(c3ccc(Br)cc3)=NN2c2ccccc2Cl)cc1 (centres undefined) [UNM-0000305832],30 µM,
COc1ccc(C2=NN(c3ccccc3)C(c3ccc(Cl)cc3)C2)cc1 (centres undefined) [UNM-0000305833],30 µM,
O=S(=O)(O)c1ccc(N2N=C(c3ccccc3)CC2c2ccccc2)cc1 (centres undefined) [UNM-0000305834],,30 µM
Cc1cccc(N2N=C(c3ccccc3)CC2c2ccccc2)c1 (centres undefined) [UNM-0000305835],30 µM,
O=[N+]([O-])c1ccc([N+]2=N[C-](c3ccccc3)CC2c2ccc(O)cc2)cc1 (centres undefined) [UNM-0000305838],30 µM,
CN(C)c1ccc(C2CC(c3ccc(Br)cc3)=NN2c2ccccc2)cc1 (centres undefined) [UNM-0000305846],30 µM,
CN(C)c1ccc(C2CC(c3ccc(Cl)cc3)=NN2c2ccccc2)cc1 (centres undefined) [UNM-0000305847],30 µM,
COc1ccc(C2=NN(c3ccccc3)C(c3ccc(OC)c(OC)c3C(=O)O)C2)cc1 (centres undefined) [UNM-0000305848],30 µM,
Cc1ccccc1[N+]1=N[C-](c2ccccc2)CC1c1cccc([N+](=O)[O-])c1 (centres undefined) [UNM-0000305854],30 µM,
COc1ccccc1N1N=C(c2ccccc2)CC1c1ccccc1 (centres undefined) [UNM-0000305855],30 µM,
O=[N+]([O-])c1cccc(C2C[C-](c3ccccc3)N=[N+]2c2ccccc2)c1 (centres undefined) [UNM-0000305857],30 µM,
COc1ccc(C2CC(c3ccc(Cl)cc3)=NN2c2ccccc2)cc1OC (centres undefined) [UNM-0000305858],30 µM,
FC(F)(F)c1cccc(N2N=C(c3ccc(Cl)cc3)CC2c2ccccc2Cl)c1 (centres undefined) [UNM-0000305859],30 µM,
COc1ccc(C2=NN(c3ccccc3F)C(c3ccc(F)cc3)C2)cc1 (centres undefined) [UNM-0000305860],30 µM,
COc1ccc(C2=NN(c3ccc(Cl)cc3)C(c3ccccc3F)C2)cc1 (centres undefined) [UNM-0000305863],30 µM,
COc1ccc(C2CC(c3ccc(F)cc3)=NN2c2ccccc2)cc1OC (centres undefined) [UNM-0000305864],30 µM,
CN(C)c1ccc(C2CC(c3ccc(F)cc3)=NN2c2ccccc2)cc1 (centres undefined) [UNM-0000305866],30 µM,
COc1ccc(C2CC(c3ccccc3)=NN2c2ccc(C(N)=O)cc2)cc1 (centres undefined) [UNM-0000305870],30 µM,

# Continued by falling EC50 [1], values first:
EC50 [1],EC50,SMILES
30 µM,,Cc1onc(-c2ccccc2)c1-c1ccc(S(N)(=O)=O)cc1
30 µM,,O=[N+]([O-])c1ccc([N+]2=N[C-](c3ccccc3)CC2c2ccccc2)cc1 (centres undefined)
30 µM,,Brc1ccc(N2N=C(c3ccccc3)CC2c2ccccc2)cc1 (centres undefined)
30 µM,,COc1ccccc1C1CC(c2ccccc2)=NN1c1ccccc1 (centres undefined)
30 µM,,Clc1cccc(N2N=C(c3ccccc3)CC2c2ccccc2)c1 (centres undefined)
30 µM,,Clc1ccc(N2N=C(c3ccccc3)CC2c2ccccc2)cc1 (centres undefined)
30 µM,,CC(=O)Oc1ccc(C2=NN(c3ccccc3)C(c3ccccc3)C2)cc1 (centres undefined)
30 µM,,O=C(O)c1ccc(N2N=C(c3ccccc3)CC2c2ccccc2)cc1 (centres undefined)
30 µM,,CCc1ccc(C2=NN(c3ccc(S(N)(=O)=O)cc3)C(c3ccc(F)cc3)C2)cc1 (centres undefined)
30 µM,,CN(C)c1ccc(C2C[C-](c3ccccc3)N=[N+]2c2ccc([N+](=O)[O-])cc2)cc1 (centres undefined)
30 µM,,COc1ccc(C2CC(c3ccccc3)=NN2c2ccc(Cl)c(C(=O)O)c2)cc1 (centres undefined)
30 µM,,COc1ccc(C2CC(c3cccc(N(C)C)c3)=NN2c2ccc(S(N)(=O)=O)cc2)cc1 (centres undefined)
30 µM,,COc1ccc(C2CC(c3ccncc3)=NN2c2ccc(S(N)(=O)=O)cc2)cc1 (centres undefined)
30 µM,,"Fc1ccccc1C1CC(c2ccc(Br)cc2)=NN1c1ccc(Br)cc1 (centres undefined) [2,5-bis(4-bromophenyl)-3-(2-fluorophenyl)-3,4-dihydropyrazole]"
30 µM,,"COc1ccc(C2CC(c3ccc(F)cc3)=NN2c2cc(Cl)ccc2Cl)cc1 (centres undefined) [2-(2,5-dichlorophenyl)-5-(4-fluorophenyl)-3-(4-methoxyphenyl)-3,4-dihydropyrazole]"
30 µM,,"COc1ccc(C2=NN(c3ccc(Cl)c(Cl)c3)C(c3ccc(OC)cc3)C2)cc1 (centres undefined) [2-(3,4-dichlorophenyl)-3,5-bis(4-methoxyphenyl)-3,4-dihydropyrazole]"
30 µM,,"Fc1ccc(C2=NN(c3cccc(Br)c3)C(c3ccccc3)C2)cc1 (centres undefined) [2-(3-bromophenyl)-5-(4-fluorophenyl)-3-phenyl-3,4-dihydropyrazole]"
30 µM,,"COc1ccc(C2=NN(c3cccc(F)c3)C(c3ccc(OC)cc3)C2)cc1 (centres undefined) [2-(3-fluorophenyl)-3,5-bis(4-methoxyphenyl)-3,4-dihydropyrazole]"
30 µM,,"COc1ccc(C2CC(c3ccccc3)=NN2c2ccc(Cl)c(C(=O)O)c2)cc1OC (centres undefined) [2-chloro-5-[3-(3,4-dimethoxyphenyl)-5-phenyl-3,4-dihydropyrazol-2-yl]benzoic acid]"
30 µM,,"COc1ccc(C2=NN(c3cccc(F)c3)C(c3ccc(Cl)cc3)C2)cc1 (centres undefined) [3-(4-chlorophenyl)-2-(3-fluorophenyl)-5-(4-methoxyphenyl)-3,4-dihydropyrazole]"
30 µM,,"COc1ccc(C2C[C-](c3ccccc3)N=[N+]2c2ccc([N+](=O)[O-])cc2)cc1 (centres undefined) [3-(4-methoxyphenyl)-2-(4-nitrophenyl)-5-phenyl-3,4-dihydropyrazole]"
30 µM,,"COc1ccc(C2CC(c3ccccc3)=NN2c2cccc(S(N)(=O)=O)c2)cc1 (centres undefined) [3-[3-(4-methoxyphenyl)-5-phenyl-3,4-dihydropyrazol-2-yl]benzenesulfonamide]"
30 µM,,"CN(C)c1ccc(C2CC(c3ccccc3)=NN2c2ccccc2)cc1 (centres undefined) [4-(2,5-diphenyl-3,4-dihydropyrazol-3-yl)-N,N-dimethylaniline]"
30 µM,,"NS(=O)(=O)c1ccc(N2N=C(c3ccccc3)CC2c2ccccc2)cc1 (centres undefined) [4-(3,5-diphenyl-3,4-dihydropyrazol-2-yl)benzenesulfonamide]"
30 µM,,"NS(=O)(=O)c1ccc(N2N=C(c3ccccc3)CC2c2ccccc2Br)cc1 (centres undefined) [4-[3-(2-bromophenyl)-5-phenyl-3,4-dihydropyrazol-2-yl]benzenesulfonamide]"
5.05 µM,,COc1ccc(-c2cc(-c3ccccc3)nn2-c2ccc(S(N)(=O)=O)cc2)cc1 [4-[5-(4-methoxyphenyl)-3-phenylpyrazol-1-yl]benzenesulfonamide]
3.37 µM,,COc1ccc(C2CC(c3ccc(N(C)C)cc3)=NN2c2ccc(S(N)(=O)=O)cc2)cc1 (centres undefined) [KUC103422N]
0.231 µM,,O=S(=O)(c1ccc(N2N=C(c3ccccc3)CC2c2ccccc2)cc1)C(F)F (centres undefined)
